Data on 16 compounds can be found in paper PMC4216211 (Journal of Medicinal Chemistry, 2014).

This assay concerns the target rat brain TSPO (Rattus norvegicus, UniProt P16257). It counts as binding. The following applies: for LipE: pKi (rat) minus clogD.

SMILES strings stand for the structures.

rat brain TSPO, sequence (P16257 whole entry): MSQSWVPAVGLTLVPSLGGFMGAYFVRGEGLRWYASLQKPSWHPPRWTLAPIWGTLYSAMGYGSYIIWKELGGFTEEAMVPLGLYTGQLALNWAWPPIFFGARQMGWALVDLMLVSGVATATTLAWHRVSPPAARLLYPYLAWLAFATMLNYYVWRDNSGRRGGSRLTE

What is called Ki is a measure of affinity in units of concentration, obtained from inhibition or displacement. A low value points to a stronger hold on the target. `CCN(CC)C(=O)CCc1cc(-c2ccccc2)nc2ccccc12` [10b, N,N-diethyl-3-(2-phenylquinolin-4-yl)propanamide] showed a Ki of 32 ± 11 nM and a LipE of 2.7 ± 0.2.
`CCC(Cc1cc(-c2ccccc2)nc2ccccc12)C(=O)N(CC)CC` (centres unmarked) [10c, N,N-diethyl-2-[(2-phenylquinolin-4-yl)methyl]butanamide] returned a Ki of 14 ± 6 nM and a LipE of 2.6 ± 0.2.
In turn, `CN1CCC(Cc2cc(-c3ccccc3)nc3ccccc23)C1=O` (centres unmarked) [10d, 1-methyl-3-[(2-phenylquinolin-4-yl)methyl]pyrrolidin-2-one] displayed a Ki of 53 ± 22 nM and a LipE of 3.6 ± 0.2.
For `CC(Cc1cc(-c2ccccc2)nc2ccccc12)C(=O)N(C)C` (centres unmarked) [10e, N,N,2-trimethyl-3-(2-phenylquinolin-4-yl)propanamide] the same measures were 40 ± 8 nM and 2.8 ± 0.1.
Regarding `CCN(C)C(=O)C(C)Cc1cc(-c2ccccc2)nc2ccccc12` (centres unmarked) [10f, N-ethyl-N,2-dimethyl-3-(2-phenylquinolin-4-yl)propanamide], the Ki worked out at 9 ± 2 nM and the LipE stood at 3.8 ± 0.1.
For `CCCN(C)C(=O)C(C)Cc1cc(-c2ccccc2)nc2ccccc12` (centres unmarked) [10g, N,2-dimethyl-3-(2-phenylquinolin-4-yl)-N-propylpropanamide] the same measures were 1.2 ± 0.4 nM and 4.2 ± 0.1.
For `CCCCCN(C)C(=O)C(C)Cc1cc(-c2ccccc2)nc2ccccc12` (centres unmarked) [10i, N,2-dimethyl-N-pentyl-3-(2-phenylquinolin-4-yl)propanamide] the same measures were 0.6 ± 0.1 nM and 2.6 ± 0.1.
The compound `CC(Cc1cc(-c2ccccc2)nc2ccccc12)C(=O)N(C)Cc1ccccc1` (centres unmarked) [10n, N-benzyl-N,2-dimethyl-3-(2-phenylquinolin-4-yl)propanamide] came in with a Ki of 5 ± 3 nM and a LipE of 1.8 ± 0.2.
The matching figures for `CC(Cc1cc(-c2ccccc2)nc2ccccc12)C(=O)N(C)c1cccnc1` (centres unmarked) [10p, N,2-dimethyl-3-(2-phenylquinolin-4-yl)-N-(pyridin-3-yl)propanamide]: 10 ± 3 nM and 2.7 ± 0.1.
The matching figures for `CC(Cc1cc(-c2ccccc2)nc2ccccc12)C(=O)N(C)c1ccncc1` (centres unmarked) [10q, N,2-dimethyl-3-(2-phenylquinolin-4-yl)-N-(pyridin-4-yl)propanamide]: 106 ± 24 nM and 1.7 ± 0.1.
As for `CC(Cc1cc(-c2ccccc2)nc2ccccc12)C(=O)N(C)c1ccccc1F` (centres unmarked) [10r, N-(2-fluorophenyl)-N,2-dimethyl-3-(2-phenylquinolin-4-yl)propanamide], the affinity, expressed as Ki, was 0.9 ± 0.2 nM and the LipE came out at 3.5 ± 0.1.
The matching figures for `CC(Cc1cc(-c2ccccc2)nc2ccccc12)C(=O)N(C)c1cccc(F)c1` (centres unmarked) [10s, N-(3-fluorophenyl)-N,2-dimethyl-3-(2-phenylquinolin-4-yl)propanamide]: 0.8 ± 0.2 nM and 3.5 ± 0.1.
Take `CC(Cc1cc(-c2ccccc2)nc2ccccc12)C(=O)N(C)c1ccc(F)cc1` (centres unmarked) [10t, N-(4-fluorophenyl)-N,2-dimethyl-3-(2-phenylquinolin-4-yl)propanamide]: the inhibition constant (Ki) came to 0.4 ± 0.1 nM and the LipE is recorded as 4.1 ± 0.2.
Compound `CC(Cc1cc(-c2ccccc2Cl)nc2ccccc12)C(=O)N(C)C(C)C` (centres unmarked) [10u, 3-[2-(2-chlorophenyl)quinolin-4-yl)-N,2-dimethyl-N-(propan-2-yl)propanamide] yielded a Ki of 22 ± 6 nM and a LipE of 3.2 ± 0.1.
In the case of `CC(Cc1cc(-c2cccc(Cl)c2)nc2ccccc12)C(=O)N(C)C(C)C` (centres unmarked) [10v, 3-[2-(3-chlorophenyl)quinolin-4-yl)-N,2-dimethyl-N-(propan-2-yl)propanamide], the Ki came out at 4 ± 1 nM and the LipE amounted to 3.7 ± 0.1.
`CC(Cc1cc(-c2ccc(Cl)cc2)nc2ccccc12)C(=O)N(C)C(C)C` (centres unmarked) [10w, 3-[2-(4-chlorophenyl)quinolin-4-yl)-N,2-dimethyl-N-(propan-2-yl)propanamide]: the Ki was found to be 4 ± 1 nM and the LipE was 3.6 ± 0.1.
